In patent US4559323A, “A41030 Antibiotics” (Eli Lilly and Company, priority 1984, dated 1985):
≈ marks a conversion by molar mass, not a printed value.

Assays:
Assay type in all cases: cell-based
[1] = test system: Streptococcus sp. (Group D) 9960; assay: Disc-plate sensitivity procedure
Enterobacter cloacae = assay: Agar-dilution MIC; details: Table 17, 24 hours
[2] = test system: Streptococcus sp. ATCC 10389; assay: Agar-dilution MIC; details: Table 18, 24 hours
Excerpt: The in vitro activity of antibiotic A41030 factors A and B against a number of representative aerobic, gram-positive bacteria, including Streptococcus sp. Group D, has been determined using a standard agar-dilution assay.

`NC1C(=O)NC2Cc3ccc(c(Cl)c3)Oc3cc4cc(c3O)Oc3ccc(cc3Cl)C(O)C3NC(=O)C(NC(=O)C4NC(=O)C(NC2=O)c2cc(O)cc(c2)Oc2cc1ccc2O)c1cc(Cl)c(O)c(c1)-c1c(O)cc(O)cc1C(C(=O)O)NC3=O` (centres unmarked) [A41030 factor A] showed a Zone diameter ([1]; Table 8, 10 μg./disc) of 16.4 mm and a Zone diameter ([1]; Table 8, 100 μg./disc) of 20.5 mm.

`N[C@H]1C(=O)N[C@@H]2Cc3ccc(c(Cl)c3)Oc3cc4cc(c3O)Oc3ccc(cc3Cl)[C@@H](O)[C@@H]3NC(=O)C(NC(=O)[C@@H]4NC(=O)[C@@H](NC2=O)c2cc(O)cc(c2)Oc2cc1ccc2O)c1ccc(O)c(c1)-c1c(O)cc(O)cc1[C@@H](C(=O)O)NC3=O` [A41030 factor B] was tested, and the MIC (Enterobacter cloacae; Enterobacter cloacae 265A) was 128 µg/mL (≈ 107 µM), the MIC (Enterobacter cloacae; Enterobacter cloacae EB5) was 128 µg/mL (≈ 107 µM) and the MIC [2] was 0.25 µg/mL (≈ 0.209 µM).
